Test results from ChEMBL document CHEMBL1157272, “Four aristolochic acid esters of rearranged ent-elemane sesquiterpenes from aristolochia heterophylla” (J Nat Prod, 1999).

Assay: Cytotoxicity against human HepG2(2.2.15) cells
Assay type: functional, cell-based

C=C[C@@]1(C)CCC=C(C[C@@H](C)OC(=O)c2cc3c(c4c2c([N+](=O)[O-])cc2ccccc24)OCO3)[C@@H]1C(=C)C=O [ARISTOPHYLLIDE D]
IC50: 13.2 µM

C=C[C@@]1(C)CCC=C(C[C@@H](C)OC(=O)c2cc3c(c4c2c([N+](=O)[O-])cc2c(OC)cccc24)OCO3)[C@@H]1C(=C)C=O [ARISTOPHYLLIDE B]
IC50: 9.4 µM

C=C[C@@]1(C)CCC=C(C[C@H](C)OC(=O)c2cc3c(c4c2c([N+](=O)[O-])cc2ccccc24)OCO3)[C@H]1C(=C)C=O [ARISTOPHYLLIDE C]
IC50: 6.2 µM

C=C[C@@]1(C)CCC=C(C[C@H](C)OC(=O)c2cc3c(c4c2c([N+](=O)[O-])cc2c(OC)cccc24)OCO3)[C@H]1C(=C)C=O [ARISTOPHYLLIDE A]
IC50: 5.1 µM
